Reference: patent publication US20060111305A1, “Metabolites of certain [1,4]diazepino[6,7,1-ij]quinoline derivatives and methods of preparation and use thereof” (Wyeth, priority 2004, published 2006)
Where “and” joins values, the source holds several entries; their conditions need not be identical. Identical values can stand only once. Blank lines part the entries; values can stand above or below the molecule they belong to.

How the values were obtained:
[1] = M6 to DCDQ ratios in human urine, LC/MS (Table 35); type: in vivo, healthy human subjects
Procedure: Drug administration and specimen collection were performed in a randomized, double-blinded, placebo-controlled, ascending single dose study of the safety, tolerability, pharmacokinetics, and pharmacodynamics of DCDQ administered orally to healthy subjects and subjects with schizophrenia and schizoaffective disorder. The specimens were stored at approximately −70° C. until analysis for metabolite profiles and for ratios of carbamoyl glucuronide (M6) to DCDQ.
The 0-4, 4-12 and 12-24 hr urine samples from the same subjects in the single dose groups were analyzed for ratios of M6 to DCDQ. The internal standard was not used in the analysis of urine samples. The samples were diluted for 20-fold with a control urine sample and directly analyzed by LC/MS. To estimate M6-to-DCDQ ratios in human urine, control urine samples were spiked with 200 ng/mL of DCDQ and 1000, 5000, or 10000 ng/mL of DCDQ carbamoyl glucuronide, and were analyzed by LC/MS.
LC/MS System 3 was used for semi-quantitative analysis of metabolite M6 (DCDQ carbamoyl glucuronide) in plasma and urine samples. The HPLC equipment for this LC/MS System consisted of a Thermo Surveyor HPLC (Thermo Electron Corp., San Jose, Calif.), including a Surveyor MS pump and autosampler. Separations were accomplished on a 5 micron Phenomenex Luna C18(2) column, 150×2 mm (Phenomenex, Torrance, Calif.). The autosampler and column temperatures were set at 5° C. and 40° C., respectively. The HPLC mobile phase consisted of 10 mM ammonium acetate (A) and methanol (B), and was delivered at 0.2 mL/min. The linear mobile phase gradient (HPLC Gradient 2) is shown below. During LC/MS sample analysis, up to 3 min of the initial flow was diverted away from the mass spectrometer prior to evaluation of metabolites.
The mass spectrometer used for semi-quantitative anslysis with LC/MS System 3 was a Finnigan TSQ Quantum triple quadrupole mass spectrometer (Thermo Electron Corp.). The mass spectrometer was equipped with an electrospray interface and operated in the positive ionization mode. Settings for this mass spectrometer are listed below.
LC/MS/MS analysis in the selected reaction monitoring (SRM) mode (LC/SRM) was conducted for DCDQ and M6 using the following settings.

[2] = test system: cryopreserved human hepatocytes; assay: Incubation of [14C]DCDQ with cryopreserved human hepatocytes; type: in vitro ADME; conditions: 4 hours
Procedure: Vials containing cryopreserved human hepatocytes were thawed in a 37° C. water bath with gentle shaking until the ice was almost melted. The vials were removed from the water bath and gentle shaking continued at room temperature for 30-60 seconds until completely thawed. The hepatocyte suspensions from each vial were immediately transferred to pre-cooled 50 mL beakers on ice. To each beaker, 12 mL of ice-cold hepatocyte suspension media was added dropwise over one minute, with occasional, gentle shaking by hand to prevent the cells from settling. The cell suspensions were transferred to a 15 mL tube and centrifuged at 100 g force for 3 min at 4° C. (Model T21 super centrifuge, Sorvall). The supernatant was discarded and the pellets were re-suspended in 4 mL of ice-cold hepatocyte culture media. The cell suspensions contained approximately 3.1×10^6 viable hepatocytes/mL. The average viability was 76.0% as determined using Trypan Blue exclusion and a hemacytometer.
The cell suspensions were distributed into 12-well plates at 1.0 mL per well. Incubations were performed using pooled hepatocytes from two donors. [^14C]DCDQ in water was added to the hepatocyte suspension at a final concentration of 10 or 50 μM. Incubations were carried out at 37° C. for 4 hours in an incubator supplied with 5% CO2. At the end of the incubation, the reaction was stopped by the addition of 200 μL cold methanol to each well. The content of each well was transferred to a 15 mL centrifuge tube and sonicated for 30 seconds. After vortex mixing with 6 mL methanol and then centrifugation, the supernatant was transferred to a clean tube and evaporated to about 0.5 mL in a TurboVap evaporator. The residue was analyzed by HPLC and LC/MS.
A Waters model 2690 HPLC system (Waters Corp., Milford, Mass.) with a built-in autosampler was used for analysis. […] A variable wavelength UV detector set to monitor 250 nm and Flo-One β Model A525 radioactivity flow detector (Perkin Elmer) with a 250 μL LQTR flow cell were used for data acquisition. […]

[3] = 50 mg (fasted), 0-4 hr, Mean ± S.D.
[4] = 50 mg (fasted), 0-4 hr, individual subjects
[5] = 50 mg (fasted), 4-12 hr, Mean ± S.D.
[6] = 50 mg (fasted), 4-12 hr, individual subjects
[7] = 50 mg (fasted), 12-24 hr, individual subjects
[8] = 200 mg (fasted), 0-4 hr, Mean ± S.D.
[9] = 200 mg (fasted), 0-4 hr, individual subjects
[10] = 200 mg (fasted), 4-12 hr, Mean ± S.D.
[11] = 200 mg (fasted), 4-12 hr, individual subjects
[12] = 200 mg (fasted), 12-24 hr, Mean ± S.D.
[13] = 200 mg (fasted), 12-24 hr, individual subjects
[14] = 300 mg (fasted), 0-4 hr, Mean ± S.D.
[15] = 300 mg (fasted), 0-4 hr, individual subjects
[16] = 300 mg (fasted), 4-12 hr, Mean ± S.D.
[17] = 300 mg (fasted), 4-12 hr, individual subjects
[18] = 300 mg (fasted), 12-24 hr, Mean ± S.D.
[19] = 300 mg (fasted), 12-24 hr, individual subjects
[20] = 300 mg (fed), 0-4 hr, Mean ± S.D.
[21] = 300 mg (fed), 0-4 hr, individual subjects
[22] = 300 mg (fed), 4-12 hr, Mean ± S.D.
[23] = 300 mg (fed), 4-12 hr, individual subjects
[24] = 300 mg (fed), 12-24 hr, Mean ± S.D.
[25] = 300 mg (fed), 12-24 hr, individual subjects
[26] = 500 mg (fasted), 0-4 hr, Mean ± S.D.
[27] = 500 mg (fasted), 0-4 hr, individual subjects
[28] = 500 mg (fasted), 4-12 hr, Mean ± S.D.
[29] = 500 mg (fasted), 4-12 hr, individual subjects
[30] = 500 mg (fasted), 12-24 hr, Mean ± S.D.
[31] = 500 mg (fasted), 12-24 hr, individual subjects

SMILES: c1cc2c3c(c1)[C@H]1CCC[C@H]1CN3CCNC2 [DCDQ, (9aR,12aS)-4,5,6,7,9,9a,10,11,12,12a-decahydro-cyclopenta[c][1,4]diazepine[6,7,1-ij]quinoline, reference compound]
DCDQ concentration in urine [1, 3]: 47.5 ± 58.5 ng/mL
DCDQ concentration in urine [1, 4]: 115 ng/mL and 13.7 ng/mL (2×)
DCDQ concentration in urine [1, 5]: 58.4 ± 58.9 ng/mL
DCDQ concentration in urine [1, 6]: 31 ng/mL and 18.2 ng/mL and 126 ng/mL
DCDQ concentration in urine ([1]; 50 mg (fasted), 12-24 hr, Mean): 32.7 ± 37.4 ng/mL
DCDQ concentration in urine [1, 7]: 17.7 ng/mL and 5.21 ng/mL and 75.3 ng/mL
DCDQ concentration in urine [1, 8]: 199 ± 124 ng/mL
DCDQ concentration in urine [1, 9]: 251 ng/mL and 288 ng/mL and 57 ng/mL
DCDQ concentration in urine [1, 10]: 118 ± 51.9 ng/mL
DCDQ concentration in urine [1, 11]: 79.5 ng/mL and 177 ng/mL and 97.3 ng/mL
DCDQ concentration in urine [1, 12]: 114 ± 81.5 ng/mL
DCDQ concentration in urine [1, 13]: 23.1 ng/mL and 181 ng/mL and 137 ng/mL
DCDQ concentration in urine [1, 14]: 81.4 ± 82.9 ng/mL
DCDQ concentration in urine [1, 15]: 9.43 ng/mL and 62.8 ng/mL and 172 ng/mL
DCDQ concentration in urine [1, 16]: 62.5 ± 36.8 ng/mL
DCDQ concentration in urine [1, 17]: 21.7 ng/mL and 93.4 ng/mL and 72.3 ng/mL
DCDQ concentration in urine [1, 18]: 128 ± 148 ng/mL
DCDQ concentration in urine [1, 19]: 22.9 ng/mL and 298 ng/mL and 64.1 ng/mL
DCDQ concentration in urine [1, 20]: 19.8 ± 31.3 ng/mL
DCDQ concentration in urine [1, 21]: 55.9 ng/mL and 1.56 ng/mL and 1.82 ng/mL
DCDQ concentration in urine [1, 22]: 155 ± 115 ng/mL
DCDQ concentration in urine [1, 23]: 259 ng/mL and 174 ng/mL and 30.6 ng/mL
DCDQ concentration in urine [1, 24]: 258 ± 125 ng/mL
DCDQ concentration in urine [1, 25]: 351 ng/mL and 116 ng/mL and 308 ng/mL
DCDQ concentration in urine [1, 26]: 914 ± 619 ng/mL
DCDQ concentration in urine [1, 27]: 1569 ng/mL and 835 ng/mL and 339 ng/mL
DCDQ concentration in urine [1, 28]: 1369 ± 658 ng/mL
DCDQ concentration in urine [1, 29]: 1683 ng/mL and 612 ng/mL and 1811 ng/mL
DCDQ concentration in urine [1, 30]: 279 ± 123 ng/mL
DCDQ concentration in urine [1, 31]: 160 ng/mL and 405 ng/mL and 273 ng/mL

M6 to DCDQ Ratios [1, 3]: 841 ± 798
M6 to DCDQ Ratios [1, 4]: 214 and 571 and 1739
M6 to DCDQ Ratios [1, 5]: 419 ± 174
M6 to DCDQ Ratios [1, 6]: 389 and 606 and 261
M6 to DCDQ Ratios ([1]; 50 mg (fasted), 12-24 hr, Mean): 155 ± 98.1
M6 to DCDQ Ratios [1, 7]: 143 and 259 and 63.9
M6 to DCDQ Ratios [1, 8]: 151 ± 32.9
M6 to DCDQ Ratios [1, 9]: 169 and 171 and 113
M6 to DCDQ Ratios [1, 10]: 284 ± 98.7
M6 to DCDQ Ratios [1, 11]: 397 and 240 and 215
M6 to DCDQ Ratios [1, 12]: 115 ± 90.4
M6 to DCDQ Ratios [1, 13]: 216 and 85.9 and 42.3
M6 to DCDQ Ratios [1, 14]: 820 ± 365
M6 to DCDQ Ratios [1, 15]: 1167 and 852 and 440
M6 to DCDQ Ratios [1, 16]: 732 ± 702
M6 to DCDQ Ratios [1, 17]: 329 and 1543 and 324
M6 to DCDQ Ratios [1, 18]: 241 ± 212
M6 to DCDQ Ratios [1, 19]: 485 and 127 and 110
M6 to DCDQ Ratios [1, 20]: 1018 ± 520
M6 to DCDQ Ratios [1, 21]: 1162 and 441 and 1451
M6 to DCDQ Ratios [1, 22]: 761 ± 508
M6 to DCDQ Ratios [1, 23]: 375 and 571 and 1337
M6 to DCDQ Ratios [1, 24]: 142 ± 46.0
M6 to DCDQ Ratios [1, 25]: 148 and 92.6 and 184
M6 to DCDQ Ratios [1, 26]: 97.6 ± 55.2
M6 to DCDQ Ratios [1, 27]: 71.5 and 60.2 and 161
M6 to DCDQ Ratios [1, 28]: 84.3 ± 58.6
M6 to DCDQ Ratios [1, 29]: 149 and 34.6 and 69.4
M6 to DCDQ Ratios [1, 30]: 176 ± 128
M6 to DCDQ Ratios [1, 31]: 288 and 36.0 and 203
relative abundance of metabolite in human hepatocytes ([2]; 50 μM DCDQ): most prominent metabolite
SMILES: O=C(O)[C@H]1O[C@@H](OC(=O)N2CCN3C[C@@H]4CCC[C@@H]4c4cccc(c43)C2)[C@H](O)[C@@H](O)[C@@H]1O [Metabolite M6, carbamoyl glucuronide of DCDQ]

metabolite detected in human hepatocyte incubations ([2]; 10 or 50 μM DCDQ): detected
SMILES: O=C1CC[C@@H]2c3cccc4c3N(CCNC4)C[C@H]12 [Metabolite M7, 17-keto DCDQ]
